Measurements taken from EP0167958A2, “Oral solid pharmaceutical form with sequential action for the administering of drugs with ulcerogenic side effect” (LABORATORIO ITALIANO BIOCHIMICO FARMACEUTICO LISAPHARMA …, priority 1984, dated 1986).

Test system: gastric mucosa
Assay: test of pylorus ligature in rats (ulcerating index, inhibition of FANS-induced gastric lesions)
Assay type: in vivo, Charles River Wistar rats
Settings: p.o., pylorus-ligated rats, 6 hours
Procedure: Several compositions containing sucralfate : FANS in weight ratios comprised within the range of from 1: 4 to 8 : 1 have been tested on rats by means of the test of pylorus ligature according to the technique Linda J. et al., J. Pharmac., 1978, 30, 244 - 246 "Inhibitors of Gastric Lesions in the Rat".
The testing has been carried out on Charles River Wis tar rats of 230 - 270 g of weight and in the number of 8 rats per each group. The rats, fasting from 15 hours, have been submitted to etheric anesthesia and then to the liga ture of the pylorus. The rats have been treated, immediate ly after the recovery, by means of gastric probe, with the FANS alone, with the FANS in the sucralfate-FANS form with sequential action according to the present invention, and by means of the administering of sucralfate first, and then, after a 10 minutes interval, of FANS.
The single active principles have been administered as aqueous suspension in sodium-CMC at 0.5% p.o.
Six hours later than the intervention, the rats have been sacrificed and the stomach, after having been withdrawn, has been cut along the line of the greater curvature. The stomach, after having been slightly washed with bidistilled water has been spread out and mounted on a support for the'evaluation of induced ulceration. The alterations detected on the gastric mucosa have been quantified on the basis of their type and largeness, with a value ranging from 0 to 1 (ulcerating index, UI), according to the following empirical scale: • 0 = mucose not damaged (control submitted to surgical handling and to placebo) • 0.25 = diffused accentuated hyperemia • 0.50 = diffused erosion • 0.75 = diffused hemorrhagic ulceration • 1 = diffused hemorrhagic ulceration with perforation and damaging of the whole gastric mucosa.
The activity of the form of sucralfate and FANS with sequential action according to the invention has been expressed as percentage inhibition of the lesion relatively to that observed in the control group as treated with the ligature of pylorus and administering of FANS only, and com pared to that obtained from the contemporary administering of sucralfate and FANS. The ID 50 (Inhibiting Dosis 50) was computated by the probit method.

## 3,4,5,6-tetra-(polyhydroxyalumino)-n-D-glu· copyranosyl sulphate - 2,3,4,5-tetra-(polyhydroxyalumino)-B-D-fructofuranoside sulphate [sucralfate]
Administering of the sucralfate-FANS form with sequential action, FANS: Diclofenac Na (50 mg/kg)
  Inhibiting Dosis 50 of sucralfate for the ulcerogenic activity of some FANS: 96.6 mg
Administering of the sucralfate-FANS form with sequential action, FANS: Indomethacin (100 mg/kg)
  Inhibiting Dosis 50 of sucralfate for the ulcerogenic activity of some FANS: 97 mg
Administering of the sucralfate-FANS form with sequential action, FANS: Sodium indoprofen betainate (200 mg/kg as indoprofen)
  Inhibiting Dosis 50 of sucralfate for the ulcerogenic activity of some FANS: 85.6 mg
Contemporary administering of sucralfate and of FANS, FANS: Diclofenac Na (50 mg/kg)
  Inhibiting Dosis 50 of sucralfate for the ulcerogenic activity of some FANS: 157 mg
Contemporary administering of sucralfate and of FANS, FANS: Indomethacin (100 mg/kg)
  Inhibiting Dosis 50 of sucralfate for the ulcerogenic activity of some FANS: 204 mg
Contemporary administering of sucralfate and of FANS, FANS: Sodium indoprofen betainate (200 mg/kg as indoprofen)
  Inhibiting Dosis 50 of sucralfate for the ulcerogenic activity of some FANS: 206 mg
